The target of assay [1] is T1, human GR (Homo sapiens, UniProt P04150).
T1 sequence (P04150 1-777): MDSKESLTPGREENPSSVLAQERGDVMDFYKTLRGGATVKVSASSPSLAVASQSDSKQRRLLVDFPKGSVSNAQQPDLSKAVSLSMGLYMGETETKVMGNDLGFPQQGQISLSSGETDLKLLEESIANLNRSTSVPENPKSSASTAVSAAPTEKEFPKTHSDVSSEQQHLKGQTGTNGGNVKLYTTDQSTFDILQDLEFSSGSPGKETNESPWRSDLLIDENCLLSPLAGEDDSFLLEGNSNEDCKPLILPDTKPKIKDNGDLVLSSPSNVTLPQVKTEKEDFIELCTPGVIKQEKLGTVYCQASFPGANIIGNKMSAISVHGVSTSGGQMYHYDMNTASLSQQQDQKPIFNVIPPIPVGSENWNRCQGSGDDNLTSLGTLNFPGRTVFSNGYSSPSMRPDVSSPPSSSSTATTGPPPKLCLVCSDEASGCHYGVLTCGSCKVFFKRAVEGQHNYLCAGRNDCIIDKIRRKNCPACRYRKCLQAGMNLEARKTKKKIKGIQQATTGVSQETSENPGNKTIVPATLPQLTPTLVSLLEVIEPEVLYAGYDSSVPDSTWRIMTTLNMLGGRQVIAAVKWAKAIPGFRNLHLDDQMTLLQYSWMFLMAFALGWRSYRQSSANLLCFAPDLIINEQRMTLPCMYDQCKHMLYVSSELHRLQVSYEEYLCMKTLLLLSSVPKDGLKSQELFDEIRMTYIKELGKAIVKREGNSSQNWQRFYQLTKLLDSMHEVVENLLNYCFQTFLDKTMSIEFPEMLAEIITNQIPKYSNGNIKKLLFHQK
Briefly: Transrepression Assay (GITAR), TNFα-β-lactamase reporter in U937 cells. Type of assay: cell-based. Also on record: U937 cells contain an endogenous glucocorticoid receptor (GR); endogenous in cells; host or cells: U937 cells stably transfected with the TNF-alpha promoter/beta-lactamase reporter. Particulars: for GITAR > GRAMM % SEP: GITAR Emax minus GRAMMER Emax; for EC50: U937 cells, inflection point, read-out: Transrepression U937 Cells GITAR IP. In a few lines: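 First, U937 reporter cells (TNF-α promoter–β-lactamase, native GR) received compound for 30–45 min at 37 °C. Next, PMA (5 ng/ml) and LPS (100 ng/ml) final were added for about 18 hr. Finally, CCF2-AM loading gave the read-out, with 100 nM dexamethasone as 100%.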

Assay [2] concerns the target T1, human GR. Briefly: Trans-Activation Modulation of Glucocorticoid Receptor (GRAMMER), MMTV-LUC reporter, agonist mode. Type of assay: cell-based. Also on record: endogenous in cells. Particulars: for Emax: A549, A549 cells, maximum activity, read-out: Transactivation A549 Cells GRAMMER Emax; for EC50: A549 cells, inflection point, read-out: Transactivation A549 Cells GRAMMER IP. The procedure, abridged: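 Readout is luciferase from a modified MMTV LTR promoter after 24 h compound exposure alongside 10 nM dexamethasone (100% activity reference), DMSO ≤1%.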

The mark [3] stands for this setting: U-937, U937 cells, maximum activity, read-out: Transrepression U937 Cells GITAR Emax.
[4] abbreviates: U-937, activity repressed by 100 nM dexamethasone alone set as 100%, read-out: maximal activity in the transrepression (GITAR) assay.

13 compounds from US8299048B2, “Hexahydrocyclopentyl[f]indazole sulfonamides and derivatives thereof as selective glucocorticoid receptor modulators” (Merck Sharp & Dohme Corp., priority 2008, dated 2012) can be followed below.

Consider `C[C@]12Cc3cnn(-c4ccc(F)cc4)c3C=C1CC[C@@H]2CN(CC#N)S(=O)(=O)c1cccc2ccccc12` [Example 40, N-(cyanomethyl)-N-{[(4αR,5S)-1-(4-fluorophenyl)-4α-methyl-1,4,4α,5,6,7-hexahydrocyclopenta[f]indazol-5-yl]methyl}naphthalene-1-sulfonamide], for which the “GITAR > GRAMM % SEP” value on human GR [1] stood at 16.6%. Further, the EC50 on human GR [1] amounted to 35.5 nM; at human GR [2], 82.8 nM. The Emax at human GR [1] (setting [3]) was 19.8%; on human GR [1] (setting [4]) it was more than 5%; at human GR [2], 3.2%.

For the compound `C[C@]12Cc3cnn(-c4ccc(F)cc4)c3C=C1CC[C@@H]2CN(CC#N)S(=O)(=O)c1cc(OCC(F)(F)F)ccc1OCC(F)(F)F` [Example 41, N-(cyanomethyl)-N-{[(4αR,5S)-1-(4-fluorophenyl)-4α-methyl-1,4,4α,5,6,7-hexahydrocyclopenta[f]indazol-5-yl]methyl}-2,5-bis(2,2,2-trifluoroethoxy)benzenesulfonamide], the “GITAR > GRAMM % SEP” value on human GR [1] stood at 31.6%. Also, the results for the EC50 on human GR [1] and at human GR [2] were 362 nM and 124 nM, respectively. The Emax at human GR [1] (setting [3]) is 91.9%; at human GR [1] (setting [4]), more than 5%; on human GR [2], 60.3%.

For the compound `C[C@]12Cc3cnn(-c4ccc(F)cc4)c3C=C1CC[C@@H]2CN(CC#N)S(=O)(=O)c1ccc(-c2ccccc2)cc1` [Example 42, N-(cyanomethyl)-N-{[(4αR,5S)-1-(4-fluorophenyl)-4α-methyl-1,4,4α,5,6,7-hexahydrocyclopenta[f]indazol-5-yl]methyl}biphenyl-4-sulfonamide], the “GITAR > GRAMM % SEP” value on human GR [1] came out at 15.1%. Besides, the values for the EC50 on human GR [1] and at human GR [2] were 391 nM and 228 nM, respectively. Besides, the figures for the Emax on human GR [1] (setting [3]), at human GR [1] (setting [4]) and at human GR [2] were 19.2%, more than 5% and 4.2%, respectively.

On to `C[C@]12Cc3cnn(-c4ccc(F)cc4)c3C=C1CC[C@@H]2CN(CC#N)S(=O)(=O)c1ccccc1F` [Example 43, N-(cyanomethyl)-2-fluoro-N-{[(4αR,5S)-1-(4-fluorophenyl)-4α-methyl-1,4,4α,5,6,7-hexahydrocyclopenta[f]indazol-5-yl]methyl}benzenesulfonamide], for which the “GITAR > GRAMM % SEP” value at human GR [1] amounted to 35.8%. Also, the EC50 on human GR [1] came out at 1100 nM; at human GR [2] it was 470 nM. For the same compound, the Emax was 71.8% at human GR [1] (setting [3]), more than 5% on human GR [1] (setting [4]) and 36% on human GR [2].

In the case of `C[C@]12Cc3cnn(-c4ccc(F)cc4)c3C=C1CC[C@@H]2CN(CC#N)S(=O)(=O)c1cc(F)cc(F)c1` [Example 44, N-(cyanomethyl)-3,5-difluoro-N-{[(4αR,5S)-1-(4-fluorophenyl)-4α-methyl-1,4,4α,5,6,7-hexahydrocyclopenta[f]indazol-5-yl]methyl}benzenesulfonamide], at human GR [1], the “GITAR > GRAMM % SEP” value was 20.8%. Moreover, the EC50 at human GR [1] was found to be 1050 nM; on human GR [2], 622 nM. Besides, the Emax was 65.6% at human GR [1] (setting [3]), more than 5% at human GR [1] (setting [4]) and 44.8% at human GR [2].

For the compound `C[C@]12Cc3cnn(-c4ccc(F)cc4)c3C=C1CC[C@@H]2CN(CC#N)S(=O)(=O)c1ccc(Oc2ccccn2)cc1` [Example 45, N-(cyanomethyl)-N-{[(4αR,5S)-1-(4-fluorophenyl)-4α-methyl-1,4,4α,5,6,7-hexahydrocyclopenta[f]indazol-5-yl]methyl}-4-(pyridin-2-yloxy)benzenesulfonamide], the “GITAR > GRAMM % SEP” value at human GR [1] is on record as 1.3%. In addition, the EC50 worked out at 1390 nM at human GR [1] and 2890 nM at human GR [2]. The Emax is 12.8% at human GR [1] (setting [3]), more than 5% on human GR [1] (setting [4]) and 11.4% on human GR [2].

Turning to `C[C@]12Cc3cnn(-c4ccc(F)cc4)c3C=C1CC[C@@H]2CN(CC#N)S(=O)(=O)c1ccc(F)cc1` [Example 46, N-(cyanomethyl)-4-fluoro-N-{[(4αR,5S)-1-(4-fluorophenyl)-4α-methyl-1,4,4α,5,6,7-hexahydrocyclopenta[f]indazol-5-yl]methyl}benzenesulfonamide], on human GR [1], the “GITAR > GRAMM % SEP” value stood at 2.1%. Also, the EC50 stood at 187 nM on human GR [1] and 373 nM on human GR [2]. Also, the Emax at human GR [1] (setting [3]) was 85.5%; at human GR [1] (setting [4]), more than 5%; at human GR [2], 83.3%.

For `C[C@]12Cc3cnn(-c4ccc(F)cc4)c3C=C1CC[C@@H]2CN(CC#N)S(=O)(=O)c1cc(F)c(F)cc1F` [Example 47, N-(cyanomethyl)-2,4,5-trifluoro-N-{[(4αR,5S)-1-(4-fluorophenyl)-4α-methyl-1,4,4α,5,6,7-hexahydrocyclopenta[f]indazol-5-yl]methyl}benzenesulfonamide], the “GITAR > GRAMM % SEP” value at human GR [1] is reported as 15.7%. For the same compound, the EC50 was found to be 895 nM on human GR [1] and 635 nM on human GR [2]. The Emax was 74% at human GR [1] (setting [3]), more than 5% on human GR [1] (setting [4]) and 58.3% on human GR [2].

Consider `C[C@]12Cc3cnn(-c4ccc(F)cc4)c3C=C1CC[C@@H]2CN(CC#N)S(=O)(=O)Cc1ccccc1` [Example 48, N-(cyanomethyl)-N-{[(4αR,5S)-1-(4-fluorophenyl)-4α-methyl-1,4,4α,5,6,7-hexahydrocyclopenta[f]indazol-5-yl]methyl}-1-phenylmethanesulfonamide], for which the “GITAR > GRAMM % SEP” value at human GR [1] was determined as 15.7%. For the same compound, the EC50 on human GR [1] came to 175 nM; on human GR [2], 995 nM. The Emax is 24.5% at human GR [1] (setting [3]), more than 5% on human GR [1] (setting [4]) and 8.8% at human GR [2].

Take `Cc1ccccc1S(=O)(=O)N(CC#N)C[C@H]1CCC2=Cc3c(cnn3-c3ccc(F)cc3)C[C@@]21C` [Example 49, N-(cyanomethyl)-N-{[(4αR,5S)-1-(4-fluorophenyl)-4α-methyl-1,4,4α,5,6,7-hexahydrocyclopenta[f]indazol-5-yl]methyl}-2-methylbenzenesulfonamide]: the “GITAR > GRAMM % SEP” value at human GR [1] is 8.9%. Moreover, the EC50 came to 922 nM on human GR [1] and 955 nM at human GR [2]. For the same compound, the Emax was 23% at human GR [1] (setting [3]), more than 5% at human GR [1] (setting [4]) and 14.1% on human GR [2].

Take `C[C@]12Cc3cnn(-c4ccc(F)cc4)c3C=C1CC[C@@H]2CN(CC#N)S(=O)(=O)c1ccccc1Cl` [Example 50, 2-chloro-N-(cyanomethyl)-N-{[(4αR,5S)-1-(4-fluorophenyl)-4α-methyl-1,4,4α,5,6,7-hexahydrocyclopenta[f]indazol-5-yl]methyl}benzenesulfonamide]: the “GITAR > GRAMM % SEP” value on human GR [1] stood at 46.2%. Besides, the results for the EC50 at human GR [1] and at human GR [2] were 959 nM and 949 nM, respectively. The figures for the Emax at human GR [1] (setting [3]), at human GR [1] (setting [4]) and at human GR [2] were 61.3%, more than 5% and 15.1%, respectively.

Turning to `C[C@]12Cc3cnn(-c4ccc(F)cc4)c3C=C1CC[C@@H]2CN(CC#N)S(=O)(=O)c1ccc(F)cc1F` [Example 51, N-(cyanomethyl)-2,4-difluoro-N-{[(4αR,5S)-1-(4-fluorophenyl)-4α-methyl-1,4,4α,5,6,7-hexahydrocyclopenta[f]indazol-5-yl]methyl}benzenesulfonamide], the “GITAR > GRAMM % SEP” value at human GR [1] was found to be 3.5%. The EC50 on human GR [1] is 186 nM; at human GR [2] it was 433 nM. In addition, the Emax was 86.8% at human GR [1] (setting [3]), more than 5% at human GR [1] (setting [4]) and 83.3% on human GR [2].

`Cc1nn(C)c(Cl)c1S(=O)(=O)N(CC#N)C[C@H]1CCC2=Cc3c(cnn3-c3ccc(F)cc3)C[C@@]21C` [Example 52, 5-chloro-N-(cyanomethyl)-N-{[(4αR,5S)-1-(4-fluorophenyl)-4α-methyl-1,4,4α,5,6,7-hexahydrocyclopenta[f]indazol-5-yl]methyl}-1,3-dimethyl-1H-pyrazole-4-sulfonamide]: the “GITAR > GRAMM % SEP” value on human GR [1] amounted to 22.5%. The EC50 on human GR [1] worked out at 869 nM; on human GR [2] it was 570 nM. Also, the Emax on human GR [1] (setting [3]) is 54.4%; at human GR [1] (setting [4]), more than 5%; on human GR [2], 31.9%.
